Source: patent US7803830B2, “3-amino-1-arylpropyl indoles and AZA-substituted indoles and uses thereof” (Roche Palo Alto LLC, priority 2005, dated 2010)
Counter-ions that a name gives are not always drawn.

Compound	melting point
CNCC[C@@H](c1ccccc1)c1cccc2cn[nH]c12 (as salt: TFA) [compound 56, [(S)-3-(1H-Indazol-7-yl)-3-phenyl-propyl]-methyl-amine]	62 to 68.1 °C
CNCCC(c1cccc(Cl)c1)c1ccc2cc[nH]c2c1 (stereo not shown) (as salt: HCl) [compound 36, [3-(3-Chloro-phenyl)-3-(1H-indol-6-yl)-propyl]-methyl-amine]	62 to 63 °C
CNCCC(c1ccccc1)c1cccc2[nH]ncc12 (stereo not shown) (as salt: HCl) [compound 49, [3-(1H-Indazol-4-yl)-3-phenyl-propyl]-methyl-amine]	130.6 to 133.1 °C
CNCCC(c1ccc2cc[nH]c2c1)c1ccccn1 (stereo not shown) (as salt: HCl) (hydrate or solvate) [compound 21]	> 300 °C
CNCCC(c1ccccc1)c1ccc2[nH]nc(C)c2c1 (stereo not shown) (as salt: TFA) [compound 58, Methyl-[3-(3-methyl-1H-indazol-5-yl)-3-phenyl-propyl]-amine]	64.5 to 66 °C
CNCC[C@H](c1ccccc1)c1cccc2cn[nH]c12 (as salt: TFA) [compound 55, [(R)-3-(1H-Indazol-7-yl)-3-phenyl-propyl]-methyl-amine]	61.9 to 65.7 °C

Now from value to compound:

melting point	Compound
60.3 to 62 °C	CNCCC(c1ccc2[nH]ccc2c1)c1ccc2nccnc2c1 (stereo not shown) [compound 123, [3-(1H-lndol-5-yl)-3-quinoxalin-6-yl-propyl]-methyl-amine]
56 to 58 °C	CNCCC(c1cnc2ccccc2c1)c1ccc2[nH]ccc2c1 (stereo not shown) [compound 137, [3-(1H-Indol-5-yl)-3-quinolin-3-yl-propyl]-methyl-amine]
142 to 152 °C	CNCCC(c1ccc2[nH]ccc2c1)c1ccc2[nH]ccc2c1 [compound 111, [3,3-Bis-(1H-indol-5-yl)-propyl]-methyl-amine]
60.9 to 62.9 °C	NCCC(c1ccc2ncccc2c1)c1ccc2[nH]ccc2c1 (stereo not shown) [compound 120, 3-(1H-Indol-5-yl)-3-quinolin-6-yl-propylamine]
